# Results from patent US6448288B1, “Cannabinoid drugs” (University of Massachusetts, priority 2000, dated 2002).
# Where two headings read alike, the source gives them in different places.
# Legend:
# [1] = Stereospecificity of inhibition of cell proliferation (D-isomer vs L-isomer); assay type: cell-based; conditions: 25 μM dose, preparation 95% enriched in D-isomer, p<0.001, FIG. 2
# C6 glioma cells [2] = experiment: MTT cell proliferation assay, C6 glioma cells; assay type: cell-based; conditions: for inhibition at 25 µM: 48 h, two days, three different experiments; for IC50: MTT assay, FIG. 1, read-out: IC50, inhibition of C6 glioma cells
# U87 = experiment: MTT assay, human cancer cell line U87 (brain); assay type: cell-based; conditions: U87, 25 μM, 48 hour MTT assay; for inhibition at 25 µM: Homo sapiens, U-87 MG, read-out: Percent inhibition of human cancer cell line growth
# U373 = experiment: MTT assay, human cancer cell line U373 (brain); assay type: cell-based; conditions: U373, 25 μM, 48 hour MTT assay; for inhibition at 25 µM: Homo sapiens, U373 MG, read-out: Percent inhibition of human cancer cell line growth
# U118 = experiment: MTT assay, human cancer cell line U118 (brain); assay type: cell-based; conditions: U118, 25 μM, 48 hour MTT assay; for inhibition at 25 µM: Homo sapiens, read-out: Percent inhibition of human cancer cell line growth
# A172 = experiment: MTT assay, human cancer cell line A172 (brain); assay type: cell-based; conditions: A172, 25 μM, 48 hour MTT assay; for inhibition at 25 µM: Homo sapiens, A 172, read-out: Percent inhibition of human cancer cell line growth
# HS578T = experiment: MTT assay, human cancer cell line HS578T (breast); assay type: cell-based; conditions: 48 hour MTT assay; for inhibition at 25 µM: Homo sapiens, Hs-578T, read-out: Percent inhibition of human cancer cell line growth
# HT1376 = experiment: MTT assay, human cancer cell line HT1376 (bladder); assay type: cell-based; conditions: HT1376, 25 μM, 48 hour MTT assay; for inhibition at 25 µM: Homo sapiens, HT-1376, read-out: Percent inhibition of human cancer cell line growth
# J82 = experiment: MTT assay, human cancer cell line J82 (bladder); assay type: cell-based; conditions: J82, 25 μM, 48 hour MTT assay; for inhibition at 25 µM: Homo sapiens, read-out: Percent inhibition of human cancer cell line growth
# Calu6 = experiment: MTT assay, human cancer cell line Calu6 (lung); assay type: cell-based; conditions: Calu6, 25 μM, 48 hour MTT assay; for inhibition at 25 µM: Homo sapiens, Calu-6, read-out: Percent inhibition of human cancer cell line growth
# Du145 = experiment: MTT assay, human cancer cell line Du145 (prostate); assay type: cell-based; conditions: Du145, 25 μM, 48 hour MTT assay; for inhibition at 25 µM: Homo sapiens, DU-145, read-out: Percent inhibition of human cancer cell line growth
# PC3 = experiment: MTT assay, human cancer cell line PC3 (prostate); assay type: cell-based; conditions: PC3, 25 μM, 48 hour MTT assay; for inhibition at 25 µM: Homo sapiens, PC-3, read-out: Percent inhibition of human cancer cell line growth
# [3] = system: human cell lines derived from a variety of cancer types (brain, breast, bladder, lung, and prostate); experiment: MTT assay, all ten human cancer cell lines together; assay type: cell-based; conditions: for inhibition at 25 µM: read-out: inhibition levels (mean±SD)
# WI38 cells = experiment: Cell proliferation assay, normal fibroblast cell line WI38; assay type: cell-based, rat; conditions: WI-38, 48 h, two days, three different experiments
# C6 glioma cells [4] = experiment: Co-incubation of C6 glioma cells with a specific CB1 antagonist; assay type: cell-based; conditions: 3.2 μM of a specific CB1 antagonist
# C6 cells [5] = experiment: Cell size and refractile bodies by phase microscopy, C6 cells; assay type: cell-based; conditions: for cells with one or more refractile bodies / mean number of refractile bodies per cell: C6 cells, after 48 hours
# C6 glioma cells [6] = experiment: Flow cytometry/cell cycle analysis; assay type: cell-based; conditions: 25 μM
# Procedure: Flow cytometry/cell cycle analysis. For flow cytometry, cells were grown in low serum (0.5%) for two days to synchronize cells in G0/G1, after which they were placed in high serum (10%) for two days. The cells were then labeled with propidium iodide and fixed in 4% paraformaldehyde. Cells were examined using a MoFlo Facs sorter for DNA content.
# W138 cells = experiment: Refractile bodies by phase microscopy, W138 cells; assay type: cell-based; conditions: same length of time and dosage
# C6 glioma cells [7] = experiment: Electron microscopy and trypan blue exclusion of treated cells; assay type: cell-based
# C6 cells [8] = experiment: Lipid incorporation assay (14C-arachidonic acid); assay type: cell-based; conditions: 25 μM, 48 hours
# Protein kinase C (PKC) = Protein kinase C (PKC) assay in C6 cells; assay type: cell-based; conditions: 25 μM
# Procedure: Protein kinase C (PKC) assay. Cells were transferred into MEM media (0.5% serum) and cultured overnight. The next day, cells were treated with either DMSO or 25 μM ajulemic acid for the specified incubation time, after which the plates were trypsinized. 5×10^6 trypsinized cells were assayed for PKC activity using a kit (Calbiochem, cat. no. 53984).
# [9] = system: human glioma cell line U87; experiment: In vivo subcutaneous U87 tumor model in nude mice; set-up: species or system male nu/nu BALBc mice
# Procedure: In vivo subcutaneous model. 10^6 U87 cells were injected into the right […] of male nu/nu BALBc mice (Charles River). Two days after inoculation, the mice received either 0.1 mg/kg ajulemic acid in 0.05 ml of safflower oil, or 0.05 ml safflower oil by oral administration. Thereafter, identical dosings were performed on each Monday, Wednesday, and Friday. When visible tumors appeared, the size of the tumors were estimated by averaging the values of two roughly perpendicular diameters measurements. Visible tumors were measured on the days of drug administration.
# [10] = 48 hours, mean over the ten human lines
# [11] = two days in 10% serum after synchronization
# [12] = two days in 10% serum after synchronization, listed as AJA
smiles,measurement,setting,value
"CCCCCCC(C)(C)c1cc(O)c2c(c1)OC(C)(C)[C@@H]1CC=C(C(=O)O)C[C@@H]21 (single isomer, unassigned) [D-isomer of ajulemic acid]",potency of D-isomer compared to L-isomer of ajulemic acid,[1],marked decrease in the potency
"CCCCCc1cc(O)c2c(c1)OC(C)(C)[C@@H]1CCC(C)=C[C@@H]21 [Δ^9-THC, tetrahydrocannabinol]",inhibition at 25 µM,C6 glioma cells [2],50%
same,IC50,C6 glioma cells [2]; C6 glioma,10 µM
same,inhibition at 25 µM,U87,20 ± 5%
same,inhibition at 25 µM,U373,0%
same,inhibition at 25 µM,U118,39 ± 5%
same,inhibition at 25 µM,A172,42 ± 5%
same,inhibition at 25 µM,HS578T,52 ± 5%
same,inhibition at 25 µM,HT1376,23 ± 5%
same,inhibition at 25 µM,J82,63 ± 6%
same,inhibition at 25 µM,Calu6,28 ± 5%
same,inhibition at 25 µM,Du145,55 ± 7%
same,inhibition at 25 µM,PC3,72 ± 2%
same,inhibition at 25 µM,[3]; [10],39.4 ± 22%
same,inhibition at 25 µM,WI38 cells,66%
same,decrease in potency on co-incubation with CB1 antagonist,C6 glioma cells [4],150%
same,cells with one or more refractile bodies,C6 cells [5],27%
same,mean number of refractile bodies per cell,C6 cells [5],0.22±0.5 per cell
CCCCCc1cc(O)c2c(c1)OC(C)(C)[C@@H]1CC=C(C(=O)O)C[C@@H]21 [THC-11-oic acid],IC50,C6 glioma cells [2],20 µM
same,Percent inhibition of human cancer cell line growth,U87,5 ± 1%
same,Percent inhibition of human cancer cell line growth,U373,0%
same,Percent inhibition of human cancer cell line growth,U118,14 ± 3%
same,Percent inhibition of human cancer cell line growth,A172,61 ± 2%
same,Percent inhibition of human cancer cell line growth,HS578T; 25 μM,2 ± 1%
same,Percent inhibition of human cancer cell line growth,HT1376,21 ± 12%
same,Percent inhibition of human cancer cell line growth,J82,1 ± 1%
same,Percent inhibition of human cancer cell line growth,Calu6,19 ± 5%
same,Percent inhibition of human cancer cell line growth,Du145,7 ± 3%
same,Percent inhibition of human cancer cell line growth,PC3,1 ± 1%
same,inhibition levels (mean±SD),"[3]; 25 μM, 48 hours, mean over the ten human lines",13.1±18.5%
same,refractile bodies noted (in words),"C6 cells [5]; C6 glioma cells, 25 μM, 48 hours",no refractile bodies
"CCCCCCC(C)(C)c1cc(O)c2c(c1)OC(C)(C)[C@@H]1CC=C(C(=O)O)C[C@@H]21 [ajulemic acid, 1′,1′-dimethylheptyl-Δ^8-THC-11-oic acid]",inhibition at 25 µM,C6 glioma cells [2],65%
same,IC50,C6 glioma cells [2]; C6 glioma,55 µM
same,inhibition at 25 µM,U87,54 ± 2%
same,inhibition at 25 µM,U373,34 ± 1%
same,inhibition at 25 µM,U118,60 ± 2%
same,inhibition at 25 µM,A172,76 ± 1%
same,inhibition at 25 µM,HS578T,60 ± 2%
same,inhibition at 25 µM,HT1376,60 ± 2%
same,inhibition at 25 µM,J82,57 ± 3%
same,inhibition at 25 µM,Calu6,69 ± 3%
same,inhibition at 25 µM,Du145,74 ± 2%
same,inhibition at 25 µM,PC3,69 ± 2%
same,effectiveness compared to THC,"[3]; 25 μM, p<0.05, in six of the ten lines tested",significantly more effective
same,inhibition at 25 µM,[3]; [10],61.3 ± 12.1%
same,inhibition at 25 µM,WI38 cells,44%
same,change of effect on co-incubation with CB1 antagonist (in words),C6 glioma cells [4],slight potentiation
same,rate of apoptosis (sub-G0 cells),C6 glioma cells [6]; two days,not increased
same,G0/G1 (mean % ± SD),C6 glioma cells [6]; [11],39.1 ± 1.3 %
same,G2/M (mean % ± SD),C6 glioma cells [6]; [11],32.3%
same,S (mean % ± SD),C6 glioma cells [6]; [11],13.0%
same,G2/M (mean % ± SD),C6 glioma cells [6]; [12],32.3 ± 3.0 %
same,S (mean % ± SD),C6 glioma cells [6]; [12],13.0 ± 2.3 %
same,cells with one or more refractile bodies,C6 cells [5],83%
same,mean number of refractile bodies per cell,C6 cells [5],1.78±1.6 per cell
same,cell size,C6 cells [5]; after 48 hours of exposure,marked increase in cell size
same,refractile bodies noted (in words),W138 cells,no refractile bodies
same,recovery upon drug removal,C6 glioma cells [7],recover quickly upon drug removal
same,state of treated cells under electron microscopy,C6 glioma cells [7],neither apoptotic nor necrotic
same,viability rate by trypan blue exclusion,C6 glioma cells [7]; treated cells,> 95%
same,content of tri- and di-glyceride versus controls,C6 cells [8],over three-fold greater
same,neutral lipids versus basal levels,"C6 cells [8]; p<0.05 vs control, FIG. 3",significant increase above basal levels
same,onset of PKC activity increase,Protein kinase C (PKC),increased within five minutes
same,PKC activity versus control,Protein kinase C (PKC); for one hour,approximately two-fold above that of control
same,appearance and size of tumors (in words),"[9]; 0.1 mg/kg thrice weekly, FIG. 4",delay in both the appearance and size of tumors
same,mean tumor diameter,"[9]; day 25 post-inoculation, 0.1 mg/kg oral thrice weekly, n=5, p=0.015",3.8±8.5 mm
